From US20130216614A1, “IMMUNOGENIC COMPOSITIONS AND METHODS FOR TREATING NUEROLOGIC DISORDERS” (Glaxosmithkline Biologicals S.A., priority 2010, published 2013)

Key:
TLR2 mRNA = assay: In situ hybridization of TLR2 transcript in brain after peripheral injection; format: in vivo, C57BL/6J mice; settings: 24 hr after single i.p. injection; CRX compounds 20 μg/mouse, 3D MPL 50 μg/mouse
From the text: In order to evaluate the innate activation within the brain, we have performed in situ hybridization 24 hr following the systemic injection of either 3D MPL, CRX524 or CRX527 or CRX601 using the intra peritoneal route.
Specifically GSK Bio injected different compositions in C57BL/6J mice for evaluating the potency of those adjuvants after 24 hrs of peripheral injection to trigger microglial cell activation in the brain. Animal study groups were:
GSK Bio performed the injections in C57BL6 mice at the Centre de biologie expérimentale de I'INRS-IAF under an IACUC approved protocol. Twenty four hours after the injections, mice were deeply anesthetized via an intraperitoneal injection of a mixture of ketamine hydrochloride and xylazine and then perfused intracardially with ice-cold 0.9% saline, followed by 4% paraformaldehyde (PFA) in a 0.1 M borax buffer, pH 9.5, at 4° C. Brains were rapidly removed from skulls, postfixed in PFA 1-3 d at 4° C. and sent to the CHUL. They were then cryoprotected in 10% sucrose diluted in PFA overnight. The frozen brains were sectioned into 25-μm-thick coronal sections using a microtome (Reichert-Jung, Cambridge Instruments Company), and slices were collected in a cold cryoprotectant solution (0.05 M sodium phosphate buffer, pH 7.3, 30% ethylene glycol, and 20% glycerol, stored at −20° C.).
Every 12th section of brain slices, starting from the end of the olfactory bulb to the end of the cerebral cortex, was mounted on Colorfrost/Plus microscope slides (Fisher Scientific). In situ hybridization histochemical localization of TLR2 transcript was performed using ^35S-labeled cRNA probe. […]
Dual labeling combining immunocytochemistry and in situ hybridization was performed as described previously (Laflamme and Rivest, 2001; Nadeau and Rivest, 2000 infra) to localize TLR2 transcripts in microglia (iba-1 staining). […] The images depicted by the different panels are representative of the signal detected on the slides for each group of mice.

[1] = test system: peripheral blood monocytes; assay: Ex vivo uptake of fluorescent Aβ42 by peripheral blood monocytes from adjuvanted mice; format: in vivo, C57BL/6 mice; settings: i.m. injection; AS01B mouse full dose, CRX601 2 μg dose
From the text: To begin to examine the function of the increase of monocytes in the peripheral blood, we examined the capacity of those monocytes to uptake Aβ42 in a test tube. In order to measure that phagocytic activity, we have used fluorescent HiLyteFluo Aβ42 (Anaspec Inc).
We examined the capacity of monocytes to uptake Aβ42 in a test tube. In order to measure that phagocytic activity we have used fluorescent HiLyteFluo Aβ42 (Anaspec Inc).
Preparation of cells: Peripheral blood was drawn from C57BL/6 mice via cardiac puncture with lithium-heparin as anticoagulant, 24-Hour after injection of the adjuvants used herein. Red blood cell lysis was performed twice on pooled blood with Ammonium Chloride-based Buffer (Sigma, Steinheim, Germany) and cells were counted with the EasyCount™ System (Immunicon). […]
Samples were acquired on a flow cytometer (BD FACSCanto II) and data analyzed with the FACSDiva software (BD Biosciences).
Monocytes were identified by their Side/Forward scatter properties, excluding debris and gated as CD3-/CD45R/B220-/Ly-6G-/NK1.1-(Lineage-)/CD11b+ cells. Aβ uptake was assessed by reporting the percentage and Mean Fluorescence Intensity (GeoMean) of positive HiLyte fluor488 Aβ1-42 cells among gated monocytes.

In the case of “3-O-desacyl-4′-monophosphoryl lipid A [3D MPL]”, the “TLR2 mRNA activation in ventricular regions and choroid plexus” value (“TLR2 mRNA activation” for short) (TLR2 mRNA) is reported as “lesser extent”.

In the case of CCCCCCCCCCC[C@H](CC(=O)N[C@H]1[C@H](OC[C@H](NC(=O)C[C@@H](CCCCCCCCCCC)OC(=O)CCCCCCCCC)C(=O)O)O[C@H](CO)[C@@H](OP(=O)(O)O)[C@@H]1OC(=O)C[C@@H](CCCCCCCCCCC)OC(=O)CCCCCCCCC)OC(=O)CCCCCCCCC [CRX527], the “TLR2 mRNA activation” value (TLR2 mRNA) is reported as “clearly activated”.

CCCCCCCCCCC[C@H](CC(=O)N[C@H]1[C@H](OC[C@H](NC(=O)C[C@@H](CCCCCCCCCCC)OCCCCCCCCCC)C(=O)O)O[C@H](CO)[C@@H](OP(=O)(O)O)[C@@H]1OC(=O)C[C@@H](CCCCCCCCCCC)OCCCCCCCCCC)OCCCCCCCCCC [CRX601] was tested, and the “TLR2 mRNA activation” value (TLR2 mRNA) was “clearly activated” and the “Aβ42 uptake by monocytes compared to PBS group” value [1] was “higher amount”.
